# Patent publication US9630929B2, “Benzenesulfonamide compounds and their use as therapeutic agents” (XENON PHARMACEUTICALS INC., priority 2011, dated 2017)
# How the values were obtained:
# Assay type in all cases: cell-based
# NaV1.7 [1] = target: T1, NaV1.7 (Homo sapiens (Human), UniProt Q15858); assay: Patch voltage clamp electrophysiology (EP), affinity for the inactivated state of Nav1.7; settings: HEK-293 cells expressing human Nav1.7 with β1 subunit
# Experimental: (§1) The following patch voltage clamp electrophysiology studies were performed on representative compounds of the invention using human embryonic kidney cells (HEK), permanently transfected with an expression vector containing the full-length cDNA coding for the desired human sodium channel α-subunit, grown in culture media containing 10% FBS, 1% PSG, and 0.5 mg/mL G418 at 37° C. with 5% CO2. […] Nav1.7 and Nav1.5 cDNAs (NM_002977 and AC137587; SCN5A, respectively) were stably expressed in HEK-293 cells. The β1 subunit was coexpressed only in the Nav1.7 cell line.
# (§2) Sodium currents were measured using the patch clamp technique in the whole-cell configuration using either a PatchXpress automated voltage clamp or manually using an Axopatch 200B (Axon Instruments) or Model 2400 (A-M systems) amplifier. […] The pipette was filled with a solution comprised of: 5 mM NaCl, 10 mM CsCl, 120 mM CsF, 0.1 mM CaCl2, 2 mM MgCl2, 10 mM HEPES, 10 mM EGTA; and adjusted to pH 7.2 with CsOH. The external solution had the following composition: 140 mM NaCl, 5 mM KCl, 2 mM CaCl2, 1 mM MgCl2, 10 mM HEPES; and adjusted to pH 7.4 with NaOH. In some studies, the external sodium was reduced by equimolar replacement with choline. Osmolarity in the CsF internal and NaCl external solutions was adjusted to 300 mOsm/kg and 310 mOsm/kg with glucose, respectively. All recordings were performed at ambient temperature in a bath chamber with a volume of 150 μL. Control sodium currents were measured in 0.5% DMSO. Controls and representative compounds of the invention were applied to the recording chamber through a 4-pinch or 8-pinch valve bath perfusion system manufactured by ALA Scientific Instruments.
# Series resistance compensation was applied (60-80%). […] All statistics in this study are given as mean±SD.
# (§3) The membrane potential was maintained at a voltage where inactivation of the channel is complete (which was −60 mV for both Nav1.7 and Nav1.5). The voltage is then stepped back to a very negative (Vhold=−150 mV) voltage for 20 ms and then a test pulse is applied to quantify the compound block. […] The percent decrease in sodium current following wash-on of compound was taken as the percent block of sodium channels.
# (§4) The Example numbers provided in Table 1 and Table 2 correspond to the Examples herein: […]
# NaV1.5 [2] = target: T2, NaV1.5 (Homo sapiens (Human), UniProt Q14524); assay: Patch voltage clamp electrophysiology (EP), affinity for the inactivated state of Nav1.5
# Experimental: Patch voltage clamp electrophysiology allows for the direct measurement and quantification of block of voltage-gated sodium channels (Nav's), and allows the determination of the time- and voltage-dependence of block which has been interpreted as differential binding to the resting, open, and inactivated states of the sodium channel (Hille, B., Journal of General Physiology (1977), 69: 497-515).
# as §1, §2
# Currents were recorded at 40 kHz sampling frequency, filtered at […], and stored using a Digidata-1322A analogue/digital interface with the pClamp software (Axon Instruments). Series resistance compensation was applied (60-80%). […] All statistics in this study are given as mean±SD.
# as §3, §4
# NaV1.7 [3] = target: T1, NaV1.7; assay: NaV flux assay, inhibition of NaV1.7; settings: NaV flux data, included when EP data is not available
# NaV1.5 [4] = target: T2, NaV1.5; assay: NaV flux assay, inhibition of NaV1.5; settings: NaV flux data, included when EP data is not available
# [5] = HEK-293 cells expressing human Nav1.5, read-out: NaV1.5 IC50
# [6] = HEK-293 cells expressing human Nav1.5, read-out: NaV1.5 IC50(μM) (class)
# T1 sequence (Q15858 other isoform, or with tags, fused parts or gaps): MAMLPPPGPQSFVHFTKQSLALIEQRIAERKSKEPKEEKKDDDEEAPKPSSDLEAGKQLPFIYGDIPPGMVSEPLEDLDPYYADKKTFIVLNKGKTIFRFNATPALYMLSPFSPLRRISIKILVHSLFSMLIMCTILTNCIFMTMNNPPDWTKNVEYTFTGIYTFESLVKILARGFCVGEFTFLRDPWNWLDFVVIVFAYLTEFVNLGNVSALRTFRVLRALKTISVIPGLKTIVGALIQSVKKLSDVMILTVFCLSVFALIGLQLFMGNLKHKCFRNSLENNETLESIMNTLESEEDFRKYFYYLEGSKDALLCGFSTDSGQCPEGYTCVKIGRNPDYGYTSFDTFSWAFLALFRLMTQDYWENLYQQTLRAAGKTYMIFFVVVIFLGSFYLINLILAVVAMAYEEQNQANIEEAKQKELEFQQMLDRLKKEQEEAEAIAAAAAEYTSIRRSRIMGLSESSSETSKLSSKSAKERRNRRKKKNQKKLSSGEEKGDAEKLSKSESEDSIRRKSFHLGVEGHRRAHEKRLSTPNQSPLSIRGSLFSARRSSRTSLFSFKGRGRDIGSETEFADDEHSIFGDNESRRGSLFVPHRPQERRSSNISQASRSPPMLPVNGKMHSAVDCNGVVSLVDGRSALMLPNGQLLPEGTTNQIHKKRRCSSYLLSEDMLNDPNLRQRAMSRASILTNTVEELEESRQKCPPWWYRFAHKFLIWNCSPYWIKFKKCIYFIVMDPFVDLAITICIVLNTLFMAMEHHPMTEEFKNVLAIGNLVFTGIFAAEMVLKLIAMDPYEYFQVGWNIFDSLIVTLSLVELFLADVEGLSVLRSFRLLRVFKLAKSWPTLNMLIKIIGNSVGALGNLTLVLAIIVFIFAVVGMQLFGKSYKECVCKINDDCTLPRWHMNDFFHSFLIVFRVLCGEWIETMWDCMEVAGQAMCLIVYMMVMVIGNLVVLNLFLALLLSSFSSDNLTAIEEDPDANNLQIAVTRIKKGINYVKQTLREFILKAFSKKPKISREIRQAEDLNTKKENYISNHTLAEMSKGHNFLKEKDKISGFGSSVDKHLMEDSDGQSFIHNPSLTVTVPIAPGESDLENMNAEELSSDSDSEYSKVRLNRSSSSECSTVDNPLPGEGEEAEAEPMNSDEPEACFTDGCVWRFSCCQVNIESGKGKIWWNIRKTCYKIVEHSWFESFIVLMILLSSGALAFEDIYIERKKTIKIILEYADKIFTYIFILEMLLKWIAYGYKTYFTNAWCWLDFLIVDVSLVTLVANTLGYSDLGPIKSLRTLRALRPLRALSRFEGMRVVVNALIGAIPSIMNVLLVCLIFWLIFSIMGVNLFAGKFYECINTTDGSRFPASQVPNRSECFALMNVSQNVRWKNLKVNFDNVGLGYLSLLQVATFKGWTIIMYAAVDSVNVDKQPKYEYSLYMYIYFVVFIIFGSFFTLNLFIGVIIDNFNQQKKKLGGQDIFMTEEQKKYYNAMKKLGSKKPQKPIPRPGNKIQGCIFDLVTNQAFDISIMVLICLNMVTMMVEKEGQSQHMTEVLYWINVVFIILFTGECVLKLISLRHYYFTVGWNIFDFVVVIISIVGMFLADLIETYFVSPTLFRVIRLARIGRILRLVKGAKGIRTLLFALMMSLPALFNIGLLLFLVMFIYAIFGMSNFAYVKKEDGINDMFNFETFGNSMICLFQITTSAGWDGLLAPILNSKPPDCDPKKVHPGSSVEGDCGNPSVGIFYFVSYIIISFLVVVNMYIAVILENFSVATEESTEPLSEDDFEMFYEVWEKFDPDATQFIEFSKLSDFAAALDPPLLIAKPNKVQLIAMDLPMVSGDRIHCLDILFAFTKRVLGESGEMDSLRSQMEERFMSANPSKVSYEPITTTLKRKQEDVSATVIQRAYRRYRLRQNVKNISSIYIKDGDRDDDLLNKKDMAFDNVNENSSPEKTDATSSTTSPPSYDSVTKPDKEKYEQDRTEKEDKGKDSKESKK
# T1 sequence (Q07699 19-218 partner): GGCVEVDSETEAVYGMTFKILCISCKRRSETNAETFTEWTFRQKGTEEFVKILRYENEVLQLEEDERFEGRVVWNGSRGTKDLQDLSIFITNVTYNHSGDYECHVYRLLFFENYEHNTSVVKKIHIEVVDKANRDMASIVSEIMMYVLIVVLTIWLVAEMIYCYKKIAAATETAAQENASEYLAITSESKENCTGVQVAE
# T2 sequence (Q14524 whole entry): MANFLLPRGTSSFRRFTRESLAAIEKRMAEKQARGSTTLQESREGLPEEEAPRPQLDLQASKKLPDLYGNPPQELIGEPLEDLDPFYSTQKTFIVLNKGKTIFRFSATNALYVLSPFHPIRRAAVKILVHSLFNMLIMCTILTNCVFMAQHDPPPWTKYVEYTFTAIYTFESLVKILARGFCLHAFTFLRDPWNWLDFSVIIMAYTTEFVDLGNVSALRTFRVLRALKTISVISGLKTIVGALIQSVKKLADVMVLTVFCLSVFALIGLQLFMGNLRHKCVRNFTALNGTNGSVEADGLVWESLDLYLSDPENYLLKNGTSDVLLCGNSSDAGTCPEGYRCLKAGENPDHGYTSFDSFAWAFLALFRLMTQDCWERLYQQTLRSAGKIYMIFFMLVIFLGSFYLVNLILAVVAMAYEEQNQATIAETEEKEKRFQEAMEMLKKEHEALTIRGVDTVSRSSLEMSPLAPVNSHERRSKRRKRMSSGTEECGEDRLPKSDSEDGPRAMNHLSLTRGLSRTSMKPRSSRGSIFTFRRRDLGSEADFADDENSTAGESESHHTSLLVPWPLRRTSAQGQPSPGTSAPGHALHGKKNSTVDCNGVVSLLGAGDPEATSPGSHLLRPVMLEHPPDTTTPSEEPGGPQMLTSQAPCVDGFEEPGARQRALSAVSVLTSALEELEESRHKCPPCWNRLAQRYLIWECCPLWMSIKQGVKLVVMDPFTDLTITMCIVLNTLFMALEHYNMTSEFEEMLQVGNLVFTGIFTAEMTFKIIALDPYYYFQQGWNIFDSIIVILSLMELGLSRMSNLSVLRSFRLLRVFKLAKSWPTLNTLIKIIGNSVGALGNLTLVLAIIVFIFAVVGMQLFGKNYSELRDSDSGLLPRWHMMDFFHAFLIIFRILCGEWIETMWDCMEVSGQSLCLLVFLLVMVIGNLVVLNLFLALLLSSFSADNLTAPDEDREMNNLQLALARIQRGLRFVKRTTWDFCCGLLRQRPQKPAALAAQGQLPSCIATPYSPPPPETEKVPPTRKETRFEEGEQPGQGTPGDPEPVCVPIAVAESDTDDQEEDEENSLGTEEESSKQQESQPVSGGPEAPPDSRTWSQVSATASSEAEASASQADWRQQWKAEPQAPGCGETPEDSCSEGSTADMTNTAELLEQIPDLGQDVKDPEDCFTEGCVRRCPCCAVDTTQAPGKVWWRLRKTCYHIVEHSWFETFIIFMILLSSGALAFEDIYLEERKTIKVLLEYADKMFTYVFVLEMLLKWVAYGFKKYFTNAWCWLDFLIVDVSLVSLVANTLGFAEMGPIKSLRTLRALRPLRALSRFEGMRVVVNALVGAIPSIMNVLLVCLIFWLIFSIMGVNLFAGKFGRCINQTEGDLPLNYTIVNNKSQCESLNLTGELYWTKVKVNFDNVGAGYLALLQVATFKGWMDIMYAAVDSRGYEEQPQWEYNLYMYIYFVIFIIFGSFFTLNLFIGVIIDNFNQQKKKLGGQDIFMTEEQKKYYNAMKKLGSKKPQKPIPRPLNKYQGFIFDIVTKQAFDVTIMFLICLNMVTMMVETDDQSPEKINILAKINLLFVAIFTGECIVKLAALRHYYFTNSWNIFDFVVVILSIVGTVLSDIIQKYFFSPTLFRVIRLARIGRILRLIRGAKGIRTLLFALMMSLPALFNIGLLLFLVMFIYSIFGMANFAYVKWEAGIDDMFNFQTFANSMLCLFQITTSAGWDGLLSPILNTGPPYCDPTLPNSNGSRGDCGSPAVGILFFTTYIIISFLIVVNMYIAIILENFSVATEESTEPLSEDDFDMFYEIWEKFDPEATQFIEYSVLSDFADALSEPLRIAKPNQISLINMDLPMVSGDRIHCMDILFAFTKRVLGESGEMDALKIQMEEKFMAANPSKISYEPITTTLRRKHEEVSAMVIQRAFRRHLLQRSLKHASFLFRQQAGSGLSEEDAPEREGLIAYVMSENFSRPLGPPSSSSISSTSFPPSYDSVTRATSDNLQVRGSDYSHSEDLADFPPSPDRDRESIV
IC50 (NaV1.7 [1]; read-out: NaV1.7 (IC50 class)),IC50 (NaV1.7 [1]; read-out: NaV1.7 IC50),IC50 (NaV1.7 [3]),Compound,IC50 (NaV1.5 [2]; [5]),IC50 (NaV1.5 [2]; [6]),IC50 (NaV1.5 [4])
< 100 nM,21.6 nM,–,"O=S(=O)(Nc1ncc(Cl)s1)c1cc(F)c(OC[C@@H]2CNCC[C@H]2c2ccc(F)c(F)c2)cc1F (relative stereo) [Example 61, N-(5-chlorothiazol-2-yl)-4-((trans-4-(3,4-difluorophenyl)piperidin-3-yl)methoxy)-2,5-difluorobenzenesulfonamide]",> 10 µM,> 10 µM,–
< 100 nM,82 nM,–,"O=C1C[C@@H](c2ccc(F)cc2)[C@H](COc2cc(F)c(S(=O)(=O)Nc3ncns3)cc2F)CN1 (relative stereo) [Example 87, 2,5-difluoro-4-((trans-4-(4-fluorophenyl)-6-oxopiperidin-3-yl)methoxy)-N-(1,2,4-thiadiazol-5-yl)benzenesulfonamide]",> 10 µM,> 10 µM,–
< 100 nM,8.6 nM,–,"O=S(=O)(Nc1ncns1)c1ccc(OC[C@@H]2CNCC[C@H]2c2ccc(Cl)cc2)c(F)c1 (relative stereo) [Example 59, 4-((trans-4-(4-chlorophenyl)piperidin-3-yl)methoxy)-3-fluoro-N-(1,2,4-thiadiazol-5-yl)benzenesulfonamide]",> 10 µM,> 10 µM,–
< 100 nM,3.3 nM,–,"N#Cc1cc(S(=O)(=O)Nc2ncns2)ccc1OC[C@@H]1CNCC[C@H]1c1ccc(Cl)cc1 (relative stereo) [Example 58, 4-((trans-4-(4-chlorophenyl)piperidin-3-yl)methoxy)-3-cyano-N-(1,2,4-thiadiazol-5-yl)benzenesulfonamide]",> 10 µM,> 10 µM,–
–,–,> 10000 nM,"O=C(NS(=O)(=O)c1cc(F)c(OC[C@@H]2CNCC[C@H]2c2ccc(Cl)cc2)cc1F)c1ccccc1 (relative stereo) [Example 104, N-((4-((trans-4-(4-chlorophenyl)piperidin-3-yl)methoxy)-2,5-difluorophenyl)sulfonyl)benzamide]",–,–,–
–,–,> 10000 nM,"N#Cc1cc(S(=O)(=O)NC2(C#N)CC2)ccc1OC[C@@H]1CNCC[C@H]1c1ccc(Cl)cc1 (relative stereo) [Example 91, 4-((trans-4-(4-chlorophenyl)piperidin-3-yl)methoxy)-3-cyano-N-(1-cyanocyclopropyl)benzenesulfonamide]",–,–,–
< 100 nM,12 nM,–,"CN1CC[C@@H](c2ccc(Cl)cc2)[C@H](COc2cc(F)c(S(=O)(=O)Nc3ncns3)cc2F)C1 (relative stereo) [Example 70, 4-((trans-4-(4-chlorophenyl)-1-methylpiperidin-3-yl)methoxy)-2,5-difluoro-N-(1,2,4-thiadiazol-5-yl)benzenesulfonamide]",> 10 µM,> 10 µM,–
–,–,> 10000 nM,"CC(C)NC(=O)NS(=O)(=O)c1cc(F)c(OC[C@@H]2CNCC[C@H]2c2ccc(Cl)cc2)cc1F (relative stereo) [Example 105, 4-((trans-4-(4-chlorophenyl)piperidin-3-yl)methoxy)-2,5-difluoro-N-(isopropylcarbamoyl)benzenesulfonamide]",–,–,–
< 100 nM,6.8 nM,–,"O=S(=O)(Nc1ncns1)c1cc(F)c(OC[C@@H]2CNCC[C@H]2c2ccc(F)cc2)cc1F (relative stereo) [Example 45, 2,5-difluoro-4-((trans-4-(4-fluorophenyl)piperidin-3-yl)methoxy)-N-(1,2,4-thiadiazol-5-yl)benzenesulfonamide]",> 10 µM,> 10 µM,–
100 to 1000 nM,331 nM,–,"CN1CC[C@@H](c2ccc(Cl)cc2)[C@H](COc2cc(F)c(S(=O)(=O)Nc3ncns3)cc2F)C1 [Example 86, 4-(((3S,4R)-4-(4-chlorophenyl)-1-methylpiperidin-3-yl)methoxy)-2,5-difluoro-N-(1,2,4-thiadiazol-5-yl)benzenesulfonamide]",> 10 µM,> 10 µM,–
< 100 nM,50.7 nM,–,"O=S(=O)(Nc1ncns1)c1cc(F)c(OCC2(F)CNCCC2c2ccc(F)cc2)cc1F (centres unmarked) [Example 47, 2,5-difluoro-4-((3-fluoro-4-(4-fluorophenyl)piperidin-3-yl)methoxy)-N-(1,2,4-thiadiazol-5-yl)benzenesulfonamide]",> 10 µM,> 10 µM,–
100 to 1000 nM,130 nM,–,"O=S(=O)(Nc1ncns1)c1cc(F)c(OC[C@@H]2CN(CC(F)(F)F)CC[C@H]2c2ccc(Cl)cc2)cc1F (relative stereo) [Example 88, 4-((trans-4-(4-chlorophenyl)-1-(2,2,2-trifluoroethyl)piperidin-3-yl)methoxy)-2,5-difluoro-N-(1,2,4-thiadiazol-5-yl)benzenesulfonamide]",> 10 µM,> 10 µM,–
–,–,4490 nM,"O=C1C[C@@H](c2cc(F)c(F)cc2F)[C@H](COc2cc(F)c(S(=O)(=O)Nc3ncns3)cc2F)CN1 (relative stereo) [Example 101, 2,5-difluoro-4-((trans-6-oxo-4-(2,4,5-trifluorophenyl)piperidin-3-yl)methoxy)-N-(1,2,4-thiadiazol-5-yl)benzenesulfonamide]",–,–,–
–,–,4080 nM,"Cn1cns/c1=N/S(=O)(=O)c1cc(F)c(OC[C@@H]2CNCC[C@H]2c2ccc(Cl)cc2)cc1F (relative stereo) [Example 78, (E)-4-((trans-4-(4-chlorophenyl)piperidin-3-yl)methoxy)-2,5-difluoro-N-(4-methyl-1,2,4-thiadiazol-5(4H)-ylidene)benzenesulfonamide]",–,–,–
< 100 nM,4.8 nM,–,"CN1CC[C@H](c2ccc(Cl)cc2)[C@@H](COc2cc(F)c(S(=O)(=O)Nc3ncns3)cc2F)C1 [Example 85, 4-(((3R,4S)-4-(4-chlorophenyl)-1-methylpiperidin-3-yl)methoxy)-2,5-difluoro-N-(1,2,4-thiadiazol-5-yl)benzenesulfonamide]",> 10 µM,> 10 µM,–
100 to 1000 nM,436 nM,–,"NC(=O)N1CC[C@@H](c2ccc(F)c(F)c2)[C@H](COc2cc(F)c(S(=O)(=O)Nc3ncc(Cl)s3)cc2F)C1 (relative stereo) [Example 89, trans-3-((4-(N-(5-chlorothiazol-2-yl)sulfamoyl)-2,5-difluorophenoxy)methyl)-4-(3,4-difluorophenyl)piperidine-1-carboxamide]",> 10 µM,> 10 µM,–
–,–,–,"O=S(=O)(Nc1ncns1)c1cc(F)c(OC[C@@H]2CNCC[C@H]2c2ccc(Cl)c(F)c2)cc1F (relative stereo) [Example 97, 4-((trans-4-(4-chloro-3-fluorophenyl)piperidin-3-yl)methoxy)-2,5-difluoro-N-(1,2,4-thiadiazol-5-yl)benzenesulfonamide]",–,–,> 10000 nM

Compound,IC50 (NaV1.7 [1]; read-out: NaV1.7 (IC50 class)),IC50 (NaV1.7 [1]; read-out: NaV1.7 IC50),IC50 (NaV1.7 [3]),IC50 (NaV1.5 [2]; [5]),IC50 (NaV1.5 [2]; [6]),IC50 (NaV1.5 [4])
"NS(=O)(=O)c1cc(F)c(OC[C@@H]2CNCC[C@H]2c2ccc(Cl)cc2)cc1F (relative stereo) [Example 95, 4-((trans-4-(4-chlorophenyl)piperidin-3-yl)methoxy)-2,5-difluorobenzenesulfonamide]",–,–,> 10000 nM,–,–,–
"CC(C)NS(=O)(=O)c1ccc(OC[C@@H]2CNCC[C@H]2c2ccc(Cl)cc2)c(C#N)c1 (relative stereo) [Example 90, 4-((trans-4-(4-chlorophenyl)piperidin-3-yl)methoxy)-3-cyano-N-isopropylbenzenesulfonamide]",–,–,> 10000 nM,–,–,–
"CC(=O)NS(=O)(=O)c1cc(F)c(OC[C@@H]2CNCC[C@H]2c2ccc(Cl)cc2)cc1F (relative stereo) [Example 102, N-((4-((trans-4-(4-chlorophenyl)piperidin-3-yl)methoxy)-2,5-difluorophenyl)sulfonyl)acetamide]",–,–,> 10000 nM,–,–,–
